Assay results taken from ChEMBL document CHEMBL2401675, “Design, synthesis, and biological evaluation of novel dipeptide-type SARS-CoV 3CL protease inhibitors: structure-activity relationship study” (Eur J Med Chem, 2013).

target: Replicase polyprotein 1a (Severe acute respiratory syndrome-related coronavirus) (UniProt P0C6U8); experiment: Ratio of Kinact to Ki for SARS coronavirus Chymotrypsin-like protease

| SMILES | Ratio |
| --- | --- |
| CCOC(=O)C1OC1C(=O)N(CCC(N)=O)NC(=O)[C@@H](CC(=O)[C@H](CC(C)C)NC(=O)OCc1ccccc1)Cc1ccccc1 (some centres not stated) | 1900 M⁻¹ s⁻¹ |

target: Replicase polyprotein 1a (Severe acute respiratory syndrome-related coronavirus, UniProt P0C6U8); experiment: Inhibition of SARS coronavirus Chymotrypsin-like protease using H-Thr-Ser-Ala-Val-Leu-Gln-Ser-Gly-Phe-Arg-Lys-NH2 as substrate by fluorescence assay

| SMILES | Ki |
| --- | --- |
| CC(C)C[C@H](NC(=O)COc1cccc(N(C)C)c1)C(=O)N[C@@H](C[C@@H]1CCNC1=O)C(=O)c1nc2ccccc2s1 | 0.84 µM |
| Cc1ccc(-c2cnc(C(=O)[C@H](C[C@@H]3CCNC3=O)NC(=O)[C@H](CC(C)C)NC(=O)OCc3ccccc3)s2)cc1 | 37 µM |
| CCCC[C@H](NC(=O)OCc1ccccc1)C(=O)N[C@@H](C[C@@H]1CCNC1=O)C(=O)c1nc2ccccc2s1 | 1.6 µM |
| COc1ccc(/C=C/C(=O)N[C@@H](CC(C)C)C(=O)N[C@@H](C[C@@H]2CCNC2=O)C(=O)c2nc3ccccc3s2)cc1OC | 1.3 µM |
| COc1ccc(-c2cnc(C(=O)[C@H](C[C@@H]3CCNC3=O)NC(=O)[C@H](CC(C)C)NC(=O)OCc3ccccc3)s2)cc1 | 52 µM |
| O=C(N[C@@H](Cc1ccccc1)C(=O)N[C@@H](C[C@@H]1CCNC1=O)C(=O)c1nc2ccccc2s1)OCc1ccccc1 | 1.2 µM |
| CC(C)C[C@H](NC(=O)/C=C/c1ccccc1)C(=O)N[C@@H](C[C@@H]1CCNC1=O)C(=O)c1nc2ccccc2s1 | 0.69 µM |
| COc1ccc(OCC(=O)N[C@@H](CC(C)C)C(=O)N[C@@H](C[C@@H]2CCNC2=O)C(=O)c2nc3ccccc3s2)cc1 | 1.56 µM |
| CC(C)C[C@H](NC(=O)Cc1ccccc1)C(=O)N[C@@H](C[C@@H]1CCNC1=O)C(=O)c1nc2ccccc2s1 | 3.2 µM |
| CC(C)CC(=O)N[C@@H](CC(C)C)C(=O)N[C@@H](C[C@@H]1CCNC1=O)C(=O)c1nc2ccccc2s1 | 5.9 µM |
| CC(C)[C@H](NC(=O)OCc1ccccc1)C(=O)N[C@@H](C[C@@H]1CCNC1=O)C(=O)c1nc2ccccc2s1 | 1.71 µM |
| COc1ccccc1-c1cnc(C(=O)[C@H](C[C@@H]2CCNC2=O)NC(=O)[C@H](CC(C)C)NC(=O)OCc2ccccc2)s1 | 2.5 µM |
| COc1ccc(/C=C/C(=O)N[C@@H](CC(C)C)C(=O)N[C@@H](C[C@@H]2CCNC2=O)C(=O)c2nc3ccccc3s2)cc1 | 0.7 µM |
| CC(C)C[C@H](NC(=O)OC(C)(C)C)C(=O)N[C@@H](C[C@@H]1CCNC1=O)C(=O)c1nc2ccccc2s1 | 23 µM |
| COc1ccc(NCC(=O)N[C@@H](CC(C)C)C(=O)N[C@@H](C[C@@H]2CCNC2=O)C(=O)c2nc3ccccc3s2)cc1 | 3.2 µM |
| COc1ccc(CCC(=O)N[C@@H](CC(C)C)C(=O)N[C@@H](C[C@@H]2CCNC2=O)C(=O)c2nc3ccccc3s2)cc1 | 0.61 µM |
| CC[C@@H](C)[C@H](NC(=O)OCc1ccccc1)C(=O)N[C@@H](C[C@@H]1CCNC1=O)C(=O)c1nc2ccccc2s1 | 29 µM |
| CC(C)C[C@H](NC(=O)COc1ccc(O)cc1)C(=O)N[C@@H](C[C@@H]1CCNC1=O)C(=O)c1nc2ccccc2s1 | 8.4 µM |
| CSCC[C@H](NC(=O)OCc1ccccc1)C(=O)N[C@@H](C[C@@H]1CCNC1=O)C(=O)c1nc2ccccc2s1 | 9.4 µM |
| CC(C)C[C@H](NC(=O)OCc1ccccc1)C(=O)N[C@@H](C[C@@H]1CCNC1=O)C(=O)c1ncc(-c2ccccc2)s1 | 0.66 µM |
| CC(C)C[C@H](NC(=O)CCc1cccnc1)C(=O)N[C@@H](C[C@@H]1CCNC1=O)C(=O)c1nc2ccccc2s1 | 7.4 µM |
